Experiments:
limb inflammation = test: PGPS arthritis model, limb thermogenesis; assay type: in vivo, rat
Method: (§1) Male AKR/J, C57BL/6J, and SWR/J mice were purchased from 4-8 weeks of age from Jackson Laboratories (Bar Harbor, Me.). Mice were fed high and low fats diets containing high sucrose as defined by Surwit et al., (Metabolism 44(5):645-651 (1995)). After 14 weeks on these diets, the intrascapular fur was shaved, the animals were dosed (intraperitineal) with 1 mg/kg of BRL37344, and the animals were anesthetized with isofluorane. Nude mice (BALB/C) were 6-8 weeks old and were dosed with inhalant two times before thermal profiling. The Lewis rat strain (200-250 g) were used for both the MED and inflammation experiments. Infrared thermographic images and temperature calculations were recorded using an Agema Thermovision 900 Infrared System.
Arthritis is a disease characterized by inflammation of the joints and can be treated with antiinflammatory agents. Because inflammatory responses are associated with increased thermogenesis at the site of the response, arthritis and the efficacy of arthritis drugs can be monitored by thermography. […] The other limb was not treated. […] Thus, infrared thermography is a useful tool for monitoring inflammatory responses and the efficacy of antiinflammatory agents as well as providing a method for screening, selecting and evaluating the effectiveness of drug candidates for treating arthritic indications.

C3H10T1/2 adipocytes [1] = test: Infrared thermography of thermogenesis in cultured adipocytes (β-AR-agonists); assay type: cell-based; details: for stimulation of thermogenesis: C3H10T1/2 adipocytes; for EC50: adipocytes, infrared thermography, dose response, read-out: EC50 (nM) Thermogenesis
Method: (§2) Human subcutaneous adipocytes were purchased from Zen-Bio, Inc. (Research Triangle Park, N.C.). C3H10T1/2 clone 8 fibroblasts were differentiated into adipocytes as previously described (Lenhard et al, Biochem. Pharmacol. 54:801-808 (1997), Paulik and Lenhard, Cell Tissue Res. 290:79-87 (1997)). After 7 days in culture, triglyceride accumulation was determined by adding lipoprotein lipase and GPO-Trinder reagent (assay kit 337-B, Sigma Diagnostics, St. Louis, Mo.) to the cells (50 μl/cm^2) and incubating the lysates at 37° C. for 2 hours. The optical density was measured using a spectrophotometer set at a wavelength of 540 nm. Lipolysis was measured as previously described (Lenhard et al, Biochem. Pharmacol. 54:801-808 (1997)).
Heat generation was measured using a Stirling cooled Agema Thermovision 900 Infrared System AB (Marietta, Ga.) equipped with a SW Scanner and 40°×25° lens which detects a 2-5.4 micron spectral response. […] The focal distance was 6 cm. Images were captured using a recurs function set at 16 or an averaging function set at 32. The data was analyzed using OS-9 advanced systems and ERIKA 2.00 software according to the manufacturer's specifications (FLIR Infrared Systems AB, Danderyd, Sweden). Thermography of adipocytes was performed by maintaining the ambient temperature of the cultured cells at 37±0.02° C. using a Queue Systems Inc. (Parkersburg, W.Va.) incubator, model QWJ500SABA. Spectral analysis of yeast was performed at 30±0.02° C. using the same incubator system. After treating the cells with experimental agents (e.g., rotenone etc.), the temperature was equilibrated for 10 minutes in the incubator before measuring real time thermogenesis for all microtiter plate applications. Various color scales in the visible wavelength were used to depict the temperature fluctuations of the recorded images. Although temperature scales are constant, the color scale images are variable and can be adjusted with level and span controls.
The β3-AR-agonists are candidate therapeutic agents for the treatment of diabetes and obesity. Although, the mechanism of action for these agents is thought to involve increased metabolic rate (Scarpace, Ann. N.Y. Acad. Sci. 813:111-116 (1997)), it has yet to be shown that β-AR-agonists increase heat output by adipocytes. Therefore, it was determined whether infrared imaging could be used to monitor the effects of β-AR-agonists on thermogenesis in cultured adipocytes.
(§3) As a control, the effects of β-AR-agonists on lipolysis was also measured. […] In general, this expands to measuring thermogenic activity of both catabolic and anabolic mediated-effects of potential drug candidates.

C3H10T1/2 adipocytes [2] = test: Lipolysis in adipocytes treated with β-AR-agonists; assay type: cell-based; details: adipocytes, dose response; read-out: EC50 (nM) Lipolysis
Method: as §2, §3

human adipocytes = test: Infrared thermography of human adipocytes in 96-well plates; assay type: cell-based; details: dose response, relative to untreated cells
Method: Heat generation was measured using a Stirling cooled Agema Thermovision 900 Infrared System AB (Marietta, Ga.) equipped with a SW Scanner and 40°×25° lens which detects a 2-5.4 micron spectral response. […] The focal distance was 6 cm. Images were captured using a recurs function set at 16 or an averaging function set at 32. The data was analyzed using OS-9 advanced systems and ERIKA 2.00 software according to the manufacturer's specifications (FLIR Infrared Systems AB, Danderyd, Sweden). Thermography of adipocytes was performed by maintaining the ambient temperature of the cultured cells at 37±0.02° C. using a Queue Systems Inc. (Parkersburg, W.Va.) incubator, model QWJ500SABA. […] After treating the cells with experimental agents (e.g., rotenone etc.), the temperature was equilibrated for 10 minutes in the incubator before measuring real time thermogenesis for all microtiter plate applications. Various color scales in the visible wavelength were used to depict the temperature fluctuations of the recorded images. Although temperature scales are constant, the color scale images are variable and can be adjusted with level and span controls.

yeast = assay type: cell-based
Method: Heat generation was measured using a Stirling cooled Agema Thermovision 900 Infrared System AB (Marietta, Ga.) equipped with a SW Scanner and 40°×25° lens which detects a 2-5.4 micron spectral response. […] The focal distance was 6 cm. Images were captured using a recurs function set at 16 or an averaging function set at 32. The data was analyzed using OS-9 advanced systems and ERIKA 2.00 software according to the manufacturer's specifications (FLIR Infrared Systems AB, Danderyd, Sweden). […] Spectral analysis of yeast was performed at 30±0.02° C. using the same incubator system. After treating the cells with experimental agents (e.g., rotenone etc.), the temperature was equilibrated for 10 minutes in the incubator before measuring real time thermogenesis for all microtiter plate applications. Various color scales in the visible wavelength were used to depict the temperature fluctuations of the recorded images. Although temperature scales are constant, the color scale images are variable and can be adjusted with level and span controls.

C3H10T1/2 cells = test: Infrared thermography of heat production in differentiating C3H10T1/2 cells (PPARγ agonists); assay type: cell-based; details: Mus musculus, C3H 10T1/2, in the presence of insulin and 9-cis retinoic acid (FIG. 7), read-out: EC50(μM), thermogenesis and lipogenesis assays
Method: as §2
Heat generation was measured using a Stirling cooled Agema Thermovision 900 Infrared System AB (Marietta, Ga.) equipped with a SW Scanner and 40°×25° lens which detects a 2-5.4 micron spectral response. […] The focal distance was 6 cm. Images were captured using a recurs function set at 16 or an averaging function set at 32. The data was analyzed using OS-9 advanced systems and ERIKA 2.00 software according to the manufacturer's specifications (FLIR Infrared Systems AB, Danderyd, Sweden). […] Various color scales in the visible wavelength were used to depict the temperature fluctuations of the recorded images. […]

intrascapular region = test: Intrascapular thermogenesis in inbred mouse strains on high and low fat diets; assay type: in vivo, mice; details: 1 mg/kg i.p., 60 min
Method: as §1
One environmental component that alters the metabolic rate in individuals with a genetic predisposition towards diabetes, dyslipidemia, or obesity is diet. It was unknown if thermography could be used to measure the effects of diet on drug-induced changes in heat production in animals with different genotypes. Thus, three different inbred strains of mice, AKR/J, C57BL/6J, and SWR/J, were maintained on high and low fat diets for 14 weeks before treating with the β3-adrenoceptor agonist, BRL37344. The heat produced in the intrascapular region was measured before and after 60 min treatment using infrared thermography. […] Thus, this technique may be used to select, rank order for the efficacy and potency of compounds with the, desired properties for a given environment or genetic background. Similarly, this technique can be used to identify, rank, and select animals and environmental factors with the desired properties for a given drug candidate.

[3] = system: interscapular brown adipose tissue (IBAT); test: IBAT thermogenesis in ob/ob mice, shaved or skin replaced with IR transparent adhesive; assay type: in vivo; details: 0.01-1 mg/kg i.g., 1 hour
Method: FIG. 28. Interscapular brown adipose tissue (IBAT) thermogenesis in ob/ob mice 1 hour after treatment with the […]-adrenoceptor agonist BRL37344 detected by IR thermography. Ten week old male ob/ob mice (Jackson Labs, Bar Harbor, Me.) were housed 5 animals/cage at 72° F. and 50% relative humidity with a 12 h light and dark cycle. They were fed chow diet (NIH R&M/Auto 6F-Ovals 5K67, PMI Feeds® Inc., Richmond, Ind.) and water ad libitum. Mice were dosed at 0.0, 0.01, 0.1, 0.3, or 1 mg/kg BRL37344 in water vehicle (0.25 mL i.g.; n=20 per dose). All animals were anesthetized with isofluorane and shaved to expose the area of interest prior to IR scanning. […] Images were recorded at 1 min intervals for 5 min with a frame averaging rate of 32 frames/sec. Acquired images were analyzed for average temperatures using an in-house image processing software application (Roboimage). Data are expressed as either average temperature/area or delta temperature/area (drug treated-vehicle treated).
The top panels show IR images of the interscapular regions of mice whose skin was removed and Bioclusive adhesive covering placed over the IBAT or mice who have been shaved only following treatment with BRL37344 at the doses indicated for 1 hour. Quantification of IR signal in the IBAT region is shown in the bottom panel. […]

whole back = test: Infrared thermography of drug-induced thermogenesis in humans; assay type: in vivo, human; details: 60 minutes after 0.6-0.7 mg/kg
Method: The effect of ephedrine on thermogenesis in two human subjects was detected by infrared Imaging 60 minutes after treatment with ephedrine at a dose of 0.6-0.7 mg/kg. […] Thus, infrared thermography can be used as a non-invasive surrogate assay to evaluate the efficacy, potency, pharmacokinetics, pharmocodynamics of drugs in clinical studies.

Compound: peptidoglycan polysaccharide [PGPS]
- thermogenesis of injected limb vs untreated limb (limb inflammation; limb injected for two weeks): higher level of thermogenesis in the treated limb than in the untreated limb

Compound: C[C@@H]1C[C@@H]([C@H](O)CC2CC(=O)NC(=O)C2)C(=O)[C@@H](C)C1 [cycloheximide]
- effect on β3-AR-mediated thermogenesis (C3H10T1/2 adipocytes [1]; 100 μM): had no effect

Compound: COc1ccc(CCNCC(O)COc2ccc(O)c(O)c2)cc1OC (stereo not shown) [RO363]
- EC50 (C3H10T1/2 adipocytes [2]): 1000 nM
- stimulation of thermogenesis (C3H10T1/2 adipocytes [1]): less effective than CL316243 or isoproterenol
- EC50 (C3H10T1/2 adipocytes [1]): 956 nM

Compound: C[C@]12C=CC(=O)C=C1CC[C@@H]1[C@@H]2[C@@H](O)C[C@@]2(C)[C@H]1CC[C@]2(O)C(=O)CO [prednisolone]
- thermogenesis of arthritic limb after treatment (limb inflammation; PGPS arthritis model, 6 mg/kg p.o.): reverses the elevation in thermogenesis

Compound: C[C@H](Cc1ccc2c(c1)OC(C(=O)[O-])(C(=O)[O-])O2)NC[C@H](O)c1cccc(Cl)c1.[Na+].[Na+] [CL316253]
- EC50 (C3H10T1/2 adipocytes [2]): 7.9 nM
- thermogenesis versus treatment time (C3H10T1/2 adipocytes [1]; 15 min vs 18 hours treatment): greater after 15 min than after 18 hours
- stimulation of thermogenesis (C3H10T1/2 adipocytes [1]): stimulated
- EC50 (C3H10T1/2 adipocytes [1]): 8.9 nM
- dose dependence of thermogenic effect (C3H10T1/2 adipocytes [1]; dose range 0.8-100 nM): dose dependent thermogenic effect

Compound: N#CC(C#N)=NNc1ccc(OC(F)(F)F)cc1 [FCCP, carbonyl cyanide p-(trifluoromethoxy)phenylhydrazone]
- thermogenesis in human adipocytes (human adipocytes): stimulated heat production
- thermogenesis in yeast (yeast): stimulated heat production

Compound: O=C1NC(=O)C(Cc2ccc3c(c2)CC[C@H](Cc2ccccc2)O3)S1 (stereo partly shown) [englitazone]
- EC50 (C3H10T1/2 cells): > 10 µM

Compound: C[C@H](Cc1ccc(OCC(=O)O)cc1)NC[C@H](O)c1cccc(Cl)c1 [BRL37344]
- thermogenic response, high vs low fat diet (intrascapular region; AKR/J mice (obesity prone)): greater thermogenic response to BRL37344 when fed the higher fat diet
- thermogenic response, high vs low fat diet (intrascapular region; C57BL/6J mice): little difference in the thermogenic response
- thermogenic response, high vs low fat diet (intrascapular region; SWR/J mice (obesity resistant)): greater thermogenic response when fed the lower fat diet
- IBAT thermogenesis ([3]; shaved only): thermogenesis increased
- IBAT thermogenesis ([3]; skin removed (peelback) and Bioclusive adhesive): demonstrate a dose-response

Compound: CC[C@H]1/C=C/C=C/C[C@@H](C)[C@H](O)[C@@](C)(O)C(=O)[C@@H](C)[C@H](O)[C@@H](C)C(=O)[C@@H](C)[C@H](O)[C@@H](C)/C=C/C(=O)O[C@@H]2[C@H](C)[C@H](CC1)O[C@]1(CC[C@H](C)[C@H](C[C@@H](C)O)O1)[C@H]2C [Oligomycin]
- EC50 (C3H10T1/2 adipocytes [1]; Mus musculus, C3H 10T1/2): 9.2 nM

Compound: CN[C@@H](C)[C@H](O)c1ccccc1 [ephedrine]
- Delta T (whole back; subject A): 0.63 °C
- Delta T (whole back; subject B): 0.46 °C
